ChEMBL document CHEMBL1130371, “3-Substituted-4-hydroxy-7-chromanylacetic acid derivatives as antagonists of the leukotriene B4 (LTB4) receptor” (Bioorg Med Chem Lett, 1997)

Columns and labels:
[1] = target: Leukotriene B4 receptor (Homo sapiens, UniProt Q9NPC1+Q15722); assay: Inhibition of LTB4 receptor induced chemotaxis of isolated human neutrophils; type: functional
[2] = target: Leukotriene B4 receptor (Cavia porcellus); assay: Inhibition of leukotriene B4 (LTB4) binding to guinea pig spleen
[3] = species on record: Homo sapiens; assay: Antagonistic activity was evaluated against LT B4 on human neutrophils; type: functional
[4] = species on record: Homo sapiens; assay: Antagonistic activity was evaluated against LT D4 on human neutrophils; type: functional
[5] = species on record: Homo sapiens; assay: Compound was evaluated for the inhibition of LTB4 receptor -induced chemotaxis of isolated human neutrophils; IA means inactive; type: functional
[6] = system: Leukotriene B4 receptor (Cavia porcellus); assay: Compound was evaluated for the inhibition of Leukotriene B4 (LTB4) receptor binding to guinea pig spleen derived receptor (GPS); IA means inactive

SMILES | IC50 [1] | IC50 [2] | also measured
O=C(O)C1(c2ccc3c(c2)OC[C@H](C(c2ccccc2)c2ccccc2)[C@H]3O)CCCC1 | 10 µM | 5.4 µM | –
O=C(O)C1(c2ccc3c(c2)OC[C@H](Cc2ccc(C(F)(F)F)cc2)[C@H]3O)CCCC1 | 6 µM | 12 µM | –
O=C(O)C1(c2ccc3c(c2)OC[C@H](Sc2ccccc2)[C@H]3O)CCCC1 | 0.5 µM | 0.56 µM | –
CC(C(=O)O)c1ccc2c(c1)[C@H](O)[C@@H](Cc1ccccc1)CO2 (stereo partly drawn) | – | – | IC50 [5]: Not Active; IC50 [6]: Not Active
CC(C)(C(=O)O)c1ccc2c(c1)OC[C@H](Cc1ccc(Cl)cc1)[C@H]2O | 5.4 µM | 4 µM | –
O=C(O)C1(c2ccc3c(c2)OC[C@H](CCc2ccc(-c4ccccc4)cc2)[C@H]3O)CCCC1 | 5.8 µM | 3.2 µM | –
O[C@H]1c2ccc(C3(C4N=NN=N4)CCCC3)cc2OC[C@@H]1C(c1ccccc1)C1CCCCC1 (stereo partly drawn) | 1.5 µM | 0.35 µM | –
O=C(O)C1(c2ccc3c(c2)OC[C@H](Cc2ccc(F)cc2F)[C@H]3O)CCCC1 | 1 µM | 2 µM | –
O=C(O)C1(c2ccc3c(c2)OC[C@H](Cc2ccc4ccccc4n2)[C@H]3O)CCCC1 | > 50 µM | 8.8 µM | –
O=C(O)C1(c2ccc3c(c2)OC[C@H](CCc2ccccc2)[C@H]3O)CCCC1 | 0.3 µM | 0.49 µM | –
O=C(O)C1(c2ccc3c(c2)OC[C@H](Cc2cccs2)[C@H]3O)CCCC1 | 0.33 µM | 0.65 µM | –
O=C(O)C1(c2ccc3c(c2)OC[C@H](CCCc2ccccc2)[C@H]3O)CCCC1 | 4.2 µM | 2.7 µM | –
O=C(O)C1(c2ccc3c(c2)OC[C@H](Cc2ccccc2)[C@H]3O)CCCC1 (stereo in doubt) | 1.1 µM | 3.4 µM | –
O=C(O)C1(c2ccc3c(c2)OC[C@H](Cc2ccccc2)[C@H]3O)CCCC1 (stereo in doubt; 11) | 0.16 µM | 0.32 µM | –
O=C(O)C1(c2ccc3c(c2)OC[C@H](Cc2ccccc2)[C@H]3O)CCCC1 (stereo in doubt; 12) | 0.078 µM | 0.42 µM | –
O=C(O)C1(c2ccc3c(c2)OC[C@H](Cc2ccccc2)[C@H]3O)CCCC1 (stereo in doubt; 13) | 0.098 µM | 0.29 µM | –
O=C(O)C1(c2ccc3c(c2)OC[C@H](Cc2ccccc2)[C@H]3O)CCCCC1 (stereo in doubt; 14) | 0.38 µM | 0.2 µM | –
O=C(O)C1(c2ccc3c(c2)OC[C@H](Cc2ccccc2)[C@H]3O)CCCCC1 (stereo in doubt; 15) | 0.23 µM | 0.24 µM | –
O=C(O)C1(c2ccc3c(c2)OC[C@H](Cc2ccccc2)[C@H]3O)CCCCC1 (stereo in doubt; 16) | 0.17 µM | 0.25 µM | –

Now from value to molecule, other results behind:

IC50 [1] | IC50 [2] | SMILES | also measured
> 100 µM | 20 µM | O=C(O)c1ccc2c(c1)OC[C@H](Cc1ccccc1)[C@H]2O | –
0.17 µM | 0.29 µM | CCC(CC)(C(=O)O)c1ccc2c(c1)OC[C@H](Cc1ccccc1)[C@H]2O | –
6.2 µM | 8 µM | CC(C)(C(=O)O)c1ccc2c(c1)OC[C@H](Cc1ccc(F)cc1F)[C@H]2O | –
25 µM | 17 µM | CC(C)(C(=O)O)c1ccc2c(c1)OC[C@H](Cc1ccccc1)C2 | –
16.4 µM | 13 µM | CC(C(=O)O)c1ccc2c(c1)OC[C@H](Cc1ccccc1)[C@H]2O (stereo partly drawn) | IC50 [3]: 0.79 µM; IC50 [4]: > 100 µM
1.5 µM | > 100 µM | CNC(=O)C(C)(C)c1ccc2c(c1)OC[C@H](Cc1ccccc1)[C@H]2O | –
9.4 µM | 6 µM | CC(C)(C(=O)O)c1ccc2c(c1)OC[C@H](Cc1cccc(F)c1)[C@H]2O | –
> 50 µM | > 100 µM | OCCc1ccc2c(c1)OC[C@H](Cc1ccccc1)[C@H]2O | –
7.2 µM | 100 µM | CC(C)c1ccc2c(c1)OC[C@H](Cc1ccccc1)[C@H]2O | –
> 50 µM | > 100 µM | OCc1ccc2c(c1)OC[C@H](Cc1ccccc1)[C@H]2O | –
12.2 µM | 53 µM | COc1cccc(C[C@H]2COc3cc(C(C)C(=O)O)ccc3[C@@H]2O)c1 (stereo partly drawn) | –
20 µM | 34 µM | CC(C)(C(=O)O)c1ccc2c(c1)OC[C@H](CC1CCCCC1)[C@H]2O | –
2.6 µM | 8 µM | CC(C)(C(=O)O)c1ccc2c(c1)OC[C@H](Cc1ccccn1)[C@H]2O | –
16 µM | 12 µM | O=C(O)CCc1ccc2c(c1)OC[C@H](Cc1ccccc1)[C@H]2O | –
> 50 µM | 100 µM | O[C@H]1c2ccccc2OC[C@@H]1Cc1ccccc1 | –
18.5 µM | 12 µM | COc1ccc(C[C@H]2COc3cc(C(C)C(=O)O)ccc3[C@@H]2O)cc1 (stereo partly drawn) | –
1.7 µM | 40 µM | CC(C)(C(=O)N1CCCC1)c1ccc2c(c1)OC[C@H](Cc1ccccc1)[C@H]2O | –
14 µM | 2.7 µM | O=C(O)C1(c2ccc3c(c2)OC[C@H](Cc2ccccc2)[C@H]3O)CCC1 | –
12.5 µM | 40 µM | CC(C)(C(=O)O)c1ccc2c(c1)OC[C@H](Cc1ccccc1)[C@H]2O (stereo in doubt) | –
12 µM | 25 µM | O=C(O)Cc1ccc2c(c1)OC[C@H](Cc1ccccc1)[C@H]2O (stereo in doubt; 4) | –
34 µM | 30 µM | O=C(O)Cc1ccc2c(c1)OC[C@H](Cc1ccccc1)[C@H]2O (stereo in doubt; 5) | –
2.4 µM | 1.2 µM | CC(C)(C(=O)O)c1ccc2c(c1)OC[C@H](Cc1ccccc1)[C@H]2O (stereo in doubt; 6) | –
5.7 µM | 2.3 µM | CC(C)(C(=O)O)c1ccc2c(c1)OC[C@H](Cc1ccccc1)[C@H]2O (stereo in doubt; 7) | –
3.4 µM | 1.3 µM | CC(C)(C(=O)O)c1ccc2c(c1)OC[C@H](Cc1ccccc1)[C@H]2O (stereo in doubt; 8) | –
